Patent US6509362B2, “N-phenylamide and N-pyridylamide derivatives, method of preparing them and pharmaceutical compositions containing them” (Merck Patent Gesellschaft mit Beschraenkter Haftung, priority 1997, dated 2003)

How the values were obtained:
[1] = system: intestinal absorption of cholesterol; test: Test B: intestinal absorption of cholesterol in rats; format: in vivo, rat (male Wistar); conditions: Rattus norvegicus; per os, rats fasted 24 h, triton WR 1339 IV, 3H-cholesterol in serum; read-out: ED50 (quantity of compound inhibiting the intestinal absorption of cholesterol by 50%)
Protocol: Test B: measurement of intestinal absorption of cholesterol in rats; […]; one hour later, […]; three hours later, 1 ml of blood was taken from the retro-orbital sinus: the blood radioactivity determined on 0.1 ml of serum represented the measurement of the absorption of ^3H-cholesterol. The results were expressed in effective dose 50 (ED50) in mg per kg of animal and represented the quantity of compound inhibiting the intestinal absorption of cholesterol by 50%.

[2] = system: hepatic ACAT; test: Test A: in vitro hepatic ACAT inhibition in rat liver microsomes; format: biochemical, rat (male Wistar); conditions: 14C-oleyl coenzyme A, read-out: IC50 (concentration of compound inhibiting the ACAT activity by 50%)
Protocol: Test A: measurement of in vitro hepatic ACAT inhibition in rats: male Wistar rats weighing 220-250 g were sacrificed by cervical dislocation; the liver was removed and homogenised to prepare the microsomal fraction by ultracentrifugation; these microsomes were incubated with ^14C-oleyl coenzyme A according to the method described by P. J. GILLIES et al., Exp. and Mol. Pathol. 1986, 44, 329-339; lipids were extracted from the incubate with a methanol-chloroforme mixture and ^14C-oleyl cholesterol was separated by TLC; the latter represented the measurement of the ACAT activity and the results were expressed in inhibitory concentration 50 (IC50) representing the concentration of compound inhibiting the ACAT activity by 50%.

[3] = system: rabbit fed a 0.5% cholesterol enriched diet; test: Test C: hypercholesterolemia model, cholesterol-fed rabbit; format: in vivo; conditions: dose 0.1 mg/kg, oral
Protocol: (§1) Test C: hypercholesterolemia model; claim 1 compounds were tested by oral route in animals subjected to a cholesterol-rich diet;

[4] = system: male Wistar rat fed a 2.5% cholesterol enriched diet; test: Test C: hypercholesterolemia model, cholesterol-fed rat; format: in vivo; conditions: dose 0.78 mg/kg, oral
Protocol: as §1

melting point [°C]	IC50 [2] [nM]	Compound	ED50 [1] [mg/kg]	total cholesterol decreased ([3]; 0.5% cholesterol diet for 15 days, treated simultaneously) [%]	lipoprotein fraction on which the effect was observed ([3]; cholesterol-fed rabbit)	total cholesterol lowered ([4]; 2.5% cholesterol diet for 8 days, treated for 2 days) [%]	lipoprotein fraction on which the effect was observed ([4]; cholesterol-fed rat)
204 to 206		CSc1cc(C)nc(SC)c1NC(=O)CC=CC1=C(c2ccccc2)c2ccccc2OC1 [Example 17, N-[2,4-Dimethylthio-6-methyl-3-pyridyl]-4-(4-phenyl-2H-3-benzo[b]pyranyl)but-3-enamide]					
218 to 220	74	CSc1cc(C)nc(SC)c1NC(=O)CC1=C(c2ccccc2)c2ccccc2CC1 [Example 4]	0.038				
	94	CSc1cc(C)nc(SC)c1NC(=O)CC1=C(c2ccccc2)c2ccccc2OC1 [Example 1, N-[2,4-Dimethylthio-6-methyl-3-pyridyl]-2-(4-phenyl-2H-3-benzo[b]pyranyl)acetamide]	0.005	70	mainly observed on VLDL	50	mainly observed on VLDL
234 to 236	31	CSc1cc(C)nc(SC)c1NC(=O)CC1=C(c2ccc(F)cc2)c2ccccc2OC1 [Example 6]	0.023				
